Experiments:
[1] = tested on: CD4+CD25+ Treg cells; assay: Coculture suppression assay B: CD8+ T effector cell proliferation (3H-Tdr incorporation) with CD4+CD25+ Treg cells and syngenic T cell-depleted PBMC; type: cell-based, human; conditions: for proliferation of CD8+ T cells co-cultured with CD4+CD25+ Treg cells and inactivated syngenic CD3-depleted PBMC: FIG. 1 black bars, compared with CD8+ T cells without Tregs, 3H-Tdr incorporation 4 days later, effect dose-dependent; for proliferation of CD4+CD25+ Tregs: FIG. 1 white bars
Excerpt: In order to study the influence of a substance, e.g. HIV-1 gp120 which can bind at least to the epitope given in SEQ ID NO.:1 exclusively on the suppressive function of CD4^+CD25^+ Treg cells, we developed a co-culture assay which contained CD8^+ T cells as effectors to exclude any influence of this substance on the latter (CD8^+ T cells don't express CD4). […] To evaluate the influence of e.g. HIV-1 gp120 on the function of CD4^+CD25^+ Treg cells, isolated CD4^+CD25^+ Treg cells (2.1.4) are co-cultured with syngenic, T cell-depleted and irradiated (50 Gy) PBMC 2.1.6) and allogeneic CD8^+ T effector cells (2.1.3) in presence of varying concentrations (0.1-10 μg/ml) of different HIV-1 gp120 preparations. Briefly, 1×10^5 CD4^+CD25^+ Treg cells are incubated with 3×10^5 syngenic T cell-depleted PBMC in the presence or absence of varying amounts of HIV-1 gp120. Stimulation with 0.5 μg/ml anti-CD3 monoclonal antibody (OKT-3, ebioscience, USA) serves as positive control. No additional stimulation represents negative control. Either immediately or 24 h. later, 1×10^5 allogeneic CD8^+ T effector cells are added to the cultures and proliferation is determined after additional 72 h. by ^3H-Tdr incorporation (37 kBq/well). Functional activation of CD4^+CD25^+ Treg cells via interaction with the epitope as set forth in SEQ ID NO:1 result in suppressed proliferation of CD8^+ T effector cells and therewith identifies a substance as a Treg cell activator (Data see FIG. 1).
After 3-4 days of incubation of cells in assays provided under (2.2.1), (2.2.2) and (2.2.3) T cell proliferation is measured. For additional 16 h., cells are pulsed with ^3H-Tdr (37 kBq/well, MB Biomedicals), and incorporated radioactivity is measured by using a liquid scintillation counter (Betaplate, Wallac/PerkinElmer). In the absence of a Treg cell activating compound, resting Treg cells cannot inhibit the proliferation of CD4^+ T helper cells or CD8^+ T effector cells (negative control). In contrast, in presence of an activating CD4-binding compound or anti-CD3 monoclonal antibody (positive control) the proliferation of CD4^+ T helper cells or CD8^+ T effector cells is suppressed by CD4^+CD25^+ Treg cells. A reduced incorporated radioactivity resembles suppressed proliferation and identifies CD4^+ T helper cell or CD8^+ T effector cell inhibition and therewith identifies that a CD4^+CD25^+ Treg cell has been activated.
In order to study the influence of HIV-1 gp120 exclusively on the function of CD4^+CD25^+ Treg cells, we developed a coculture assay which contained CD8^+ T cells as effectors to exclude any influence of HIV-1 gp120 on the latter. Therefore, isolated CD4^+CD25^+ Treg cells are cocultured with T cell-depleted syngenic PBMC and allogeneic CD8^+ T effector cells. […] (All HIV-1 gp120 proteins: Protein Sciences Corp. Meriden, USA).
1×10^5 isolated CD25^+ Treg cells were incubated with 3×10^5 irradiated (50 Gy) syngenic T cell-depleted PBMC and 1×10^5 allogeneic CD8^+ T effector cells in presence/absence of different HIV-1 gp120 preparations, addition of 0.5 μg/ml anti-CD3 (OKT-3) served as positive control. Proliferation was determined by ^3H-Tdr-Incorporation 4 days later.
Grey bars represent proliferation of CD8^+ T cells and inactivated syngenic CD3-depleted PBMC, white bars represent the proliferation of CD4^+CD25^+ Tregs and the black bars represent the proliferation of CD8^+ T cells co-cultured with CD4^+CD25^+ Tregs cells and inactivated syngenic CD3-depleted PBMC. Due to inactivation PBMC don't contribute to proliferation of the samples.

[2] = tested on: NOD-Scid mice; assay: GVHD induced by transfer of human PBMC into NOD-Scid mice; lack of weight increase/weight loss as score; type: in vivo; conditions: FIG. 4; 5 μg HIV gp120 injected together with PBMC, intraperitoneal, three to six days old mice
Excerpt: NOD-Scid mice, non-obese diabetic/severe combined immunodeficient mice, (mutant allele: Prkdc^Scid strain: NOD.CB 17-Prkdc^Scid, (Shultz et al. 1995)) from the Central Laboratory Animal Facility of the University of Mainz (also purchasable from The Jackson Laboratory via Charles River Laboratories, Germany) are used as an animal model for transfer of peripheral human immune cells and thus for the in vivo analysis of immuno-regulatory interactions (Hesselton et al. 1995). Human peripheral blood mononuclear cells (PBMC) transferred into NOD-Scid mice induce an accelerating […] graft-versus-host disease (GVHD). While the number of cells transferred determines the onset of this disease, the co-transfer of human Tregs can gradually delay or prevent the disease. This model system further allows the study of human Treg function. To induce a GVHD NOD-Scid mice at the age of three to six days after birth are intraperitoneally injected with 1×10^7 to 3×10^7 human PBMC (isolation of human PBMC according to 2.1.1). GVHD is induced by immunological (xenogenic) activation of human effector T cells in the PBMC fraction injected into the mice. NOD-Scid mice, however, are not able to react against the grafted human PBMC. […]

[3] = tested on: NOD-Scid mice; assay: GVHD induced by transfer of human CD25-depleted PBMC into NOD-Scid mice; lack of weight increase/weight loss as score; type: in vivo; conditions: FIG. 5; 5 μg HIV gp120 injected together with CD25-depleted PBMC, intraperitoneal
Excerpt: NOD-Scid mice at the age of three to six days after birth are intraperitoneally injected with 1×10^7 human CD25-depleted PBMC (isolation of human CD25-depleted PBMC according to 2.1.7). GVHD is induced by 1×10^7 human CD25-depleted PBMC at the same magnitude as by transfer of 1×10^7 human non CD25-depleted PBMC into NOD-Scid mice. […] Prevention of GVHD by HIV gp120 or a substance which can interfere with HIV-1 gp120-binding depends on regulatory T cells. Lack of weight increase/weight loss is used as a parameter to score GVHD severity. Data see FIG. 5.
Three to six days old NOD-Scid mice are intraperitoneally injected with 1×10^7 human CD25-depleted PBMC without (circles) or together with 5 μg HIV gp120 (triangles). […] Lack of weight increase/weight loss is used as a parameter to score GVHD severity.

[4] = tested on: CD4+CD25+ Treg cells; assay: Cytosolic cAMP measurement in CD4+CD25+ Treg cells (cAMP-specific ELISA); type: cell-based, human; conditions: FIG. 2; 1 μg/ml, 16 hours of stimulation, 1×10^6 T cells
Method: Stimulation of Treg cells results in strong increase of cytosolic (i.e. intracellular) cAMP. Therefore, the analysis of cAMP in Treg cells is an additional method to determine whether a substance which can interfere with HIV-1 gp120 binding to CD4 epitope of a CD4-positive cell can activate a Treg cell. In this assay freshly isolated CD4^+CD25^+ Treg cells (according to 2.1.4) (1×10^5-1×10^6/well) are incubated with anti-CD3 monoclonal antibody (OKT-3; 0.5 μg/ml) or HIV-1 gp120 (0.1-10 μg/ml; Protein Science Corp., Meriden, Conn., USA) or left untreated for 16 hours. To assess cytosolic cAMP-concentrations a cAMP-specific ELISA (Parameter™ Cyclic AMP Assay, Cat. No. KGE002; R&D Systems, Wiesbaden, Germany) is applied. […]
Activation of Treg cells by the test compound results directly in an increase of cytosolic cAMP. In the absence of a Treg cell activating compound no increase of cAMP in CD4^+CD25^+ Treg cells is detected (negative control). […]
CD4^+CD25^+ regulatory T cells (CD25) are left untreated (0) or stimulated with an anti-CD3 monoclonal Antibody (OKT-3; 1 μg/ml) or HIV-1 gp120 (1 μg/ml). Upon 16 hours of stimulation the CD4^+CD25^+ regulatory T cells are lysed (1×10^7/ml) and the cytosolic cAMP concentration of 1×10^6 T cells is assessed using a cAMP-specific ELISA. […]

| Substance | proliferation of CD8+ T cells co-cultured with CD4+CD25+ Treg cells and inactivated syngenic CD3-depleted PBMC [1] | proliferation of CD4+CD25+ Tregs ([1]; 3H-Tdr incorporation) | development of GVHD (relative body weight) after transfer of 1×10^7 human PBMC [2] | development of GVHD (relative body weight) after transfer of 1×10^7 human CD25-depleted PBMC [3] | cytosolic (intracellular) cAMP in Treg cells compared to untreated control [4] | proliferation of CD8+ T cells and inactivated syngenic CD3-depleted PBMC, without Tregs ([1]; FIG. 1 grey bars, 3H-Tdr incorporation) |
| --- | --- | --- | --- | --- | --- | --- |
| HIV-1 gp120 CM: HIV-1 gp120 preparation CM, Protein Sciences Corp. Meriden, USA | reduced proliferation | don't show a significant proliferation |  |  |  |  |
| HIV-1 gp120 LAV: HIV-1 gp120 preparation LAV, Protein Sciences Corp. Meriden, USA | reduced proliferation | don't show a significant proliferation |  |  |  |  |
| HIV-1 gp120 MN: HIV-1 gp120 preparation MN, Protein Sciences Corp. Meriden, USA | reduced proliferation | don't show a significant proliferation |  |  |  |  |
| HIV-1 gp120: human immune deficiency virus 1 (HIV-1) glycoprotein gp120, binds CD4; Protein Sciences Corp. |  |  | protected from development of GVHD | not protected from development of GVHD | increase of intracellular cAMP |  |
| anti-CD3: anti-CD3 monoclonal antibody (OKT-3, ebioscience, USA), positive control [reference compound] | reduced proliferation | don't show a significant proliferation |  |  | increase of intracellular cAMP | strong increased proliferation |

From US10729742B2, “Screening method for the identification of agents capable of activating CD4+CD25+ regulatory T-cells through interactions with the HIV-1 GP120 binding site on CD4” (priority 2007, dated 2020)
